Assay results: patent publication EP0514268A1, “Substituted amino acid azetidinyl pyridone derivatives, their preparation and use as medicines” (LABORATORIOS DEL DR. ESTEVE, S.A., priority 1991, dated 1992)
Values after ≈ are worked out from the molar mass of the structure shown.

Columns and labels:
[1] = Solubility in water and at pH 7.4; assay type: physicochemical
Text: Un grand nombre des composés de l'invention manifestent une augmentation de la solubilité dans l'eau ainsi que de la solubilité à pH 7,4 lorsqu'on compare avec les composés de référence. L'augmentation de solubilité au pH physiologique peut favoriser l'absorption du produit et la solubilité élevée dans l'eau permet l'administration du composé par voie parentérale.

[2] = system: Strep. faecalis ATCC 10541; assay: Antimicrobial activity, agar dilution; assay type: cell-based, Streptococcus faecalis; settings: Enterococcus faecalis, ATCC10541, 20 h, Agar Dextrose dilutions, 37°C, 20 heures, read-out: Activité pharmacologique antimicrobienne (concentrations)
Text: (§1) L'activité pharmacologique antimicrobienne de ces composés a été étudiée selon les références exposées ci-dessous.
(§2) Activité pharmacologique antimicrobienne : G.L. Daquet et Y.A. Chabbect, techniques en bactériologie, Vol. 3, Flammarion Médecine-Sciences, Paris 1972, et W.B. Hugo et A.D. Rusell, Pharmaceutical Microbiology, Blackwell Scientific Publications, London, 1977.
(§3) Milieu de culture et solvant : Agar d'antibiotiques n° 1 (Oxoid CM 327) Bouillon de triptone-soja (Oxoid CM 129) Solution Physiologique Ringer 1/4 (Oxoid BR 52) Agar Dextrose (BBL 11165)
(§4) Microorganismes : "Bacillus subtilis" ATCC 6633 "Citrobacter freundii" ATCC 112606 "Enterobacter aerogenes" ATCC 15038 "Enterobacter cloacae" ATCC 23355 "Bacillus cereus" ATCC 1178 "Escherichia coli" ATCC 10799 "Escherichia coli" ATCC 23559 "Klebsiella pneumoniae" ATCC 10031 "Proteus vulgaris" ATCC 8427 "Morg. morganii" ATCC 8019 "Pseudomonas aeruginosa" ATCC 9721 "Pseudomonas aeruginosa" ATCC 10145 "Salmonella typhimurium" ATCC 14028 "Salmonella typhimurium" ATCC 6539 "Serratia marcescens" ATCC 13880 "Shigella flexnerii" ATCC 12022 "Staphylococcusepidermis" ATCC 155-1 "Staphylococcus aureus" ATCC 25178 "Streptococcus faecalis" ATCC 10541.
(§5) Chacun des microorganismes est ensemencé par strie dans des tubes d'Agar d'antibiotiques n° 1, et mis en incubation pendant 20 heures à 37°C. Ensuite, on prend une anse de culture, on ensemence dans un bouillon de Triptone-soja et on incube pendant 20 heures à 37°C. On dilue à 1/4 la culture obtenue avec une solution physiologique Ringer, de façon à obtenir une suspension normalisée de […] pour chaque organisme.
(§6) A partir d'une solution de 100 µg/ml, chaque produit est dilué dans l'Agar Dextrose (préalablement fondu et maintenu à 50°C) par dilutions successives de façon à obtenir les concentrations suivantes : 64-32-16-8-4-2-1-0,5-0,25-0,125 µg de dérivé/ml du milieu.
(§7) Postérieurement, chaque concentration de chaque produit est répartie dans des boîtes de Petri de 10 cm de diamètre, à raison de 10 ml de milieu par boîte et autant de boîtes que de microorganismes à tester.
(§8) Une fois le milieu refroidi, les boîtes sont ensemencées avec les inoculations à raison de 0,4 ml d'inoculation par boîte. On les étend avec une anse de Driglasky et on recueille le surnageant. Les boîtes ensemencées sont incubées à 37°C pendant 20 heures.
(§9) Les résultats obtenus sont décrits dans les tableaux suivants. Les concentrations sont données en µg/ml.

Staph. aureus ATCC 25178 = assay: Antimicrobial activity, agar dilution; assay type: cell-based, Staphylococcus aureus; settings: Staphylococcus aureus, ATCC25178, 20 h, Agar Dextrose dilutions, 37°C, 20 heures, read-out: Activité pharmacologique antimicrobienne (concentrations)
Text: as §1, §2, §3, §4, §5, §6, §7, §8, §9

[3] = system: Citr. freundii ATCC 11606; assay: Antimicrobial activity, agar dilution; assay type: cell-based, Citrobacter freundii; settings: Citrobacter freundii, ATCC11606, 20 h, Agar Dextrose dilutions, 37°C, 20 heures, read-out: Activité pharmacologique antimicrobienne (concentrations)
Text: as §1, §2, §3, §4, §5, §6, §7, §8, §9

[4] = system: Bacillus cereus ATCC 11778; assay: Antimicrobial activity, agar dilution; assay type: cell-based; settings: Bacillus cereus, ATCC11778, 20 h, Agar Dextrose dilutions, 37°C, 20 heures, read-out: Activité pharmacologique antimicrobienne (concentrations)
Text: as §1, §2, §3, §4, §5, §6, §7, §8, §9

[5] = system: Bacillus subtilis ATCC 6633; assay: Antimicrobial activity, agar dilution; assay type: cell-based; settings: ATCC6633, 20 h, Agar Dextrose dilutions, 37°C, 20 heures, read-out: Activité pharmacologique antimicrobienne (concentrations)
Text: as §1, §2, §3, §4, §5, §6, §7, §8, §9

[6] = system: Escherichia coli ATCC 10799; assay: Antimicrobial activity, agar dilution; assay type: cell-based; settings: Escherichia coli, ATCC10799, 20 h, Agar Dextrose dilutions, 37°C, 20 heures, read-out: Activité pharmacologique antimicrobienne (concentrations)
Text: as §1, §2, §3, §4, §5, §6, §7, §8, §9

[7] = system: Escherichia coli ATCC 23559; assay: Antimicrobial activity, agar dilution; assay type: cell-based; settings: Escherichia coli, ATCC23559, 20 h, Agar Dextrose dilutions, 37°C, 20 heures, read-out: Activité pharmacologique antimicrobienne (concentrations)
Text: as §1, §2, §3, §4, §5, §6, §7, §8, §9

Morg. morganii ATCC 8019 = assay: Antimicrobial activity, agar dilution; assay type: cell-based; settings: Morganella morganii, ATCC8019, 20 h, Agar Dextrose dilutions, 37°C, 20 heures, read-out: Activité pharmacologique antimicrobienne (concentrations)
Text: as §1, §2, §3, §4, §5, §6, §7, §8, §9

[8] = system: Proteus vulgaris ATCC 8427; assay: Antimicrobial activity, agar dilution; assay type: cell-based; settings: Proteus vulgaris, ATCC8427, 20 h, Agar Dextrose dilutions, 37°C, 20 heures, read-out: Activité pharmacologique antimicrobienne (concentrations)
Text: as §1, §2, §3, §4, §5, §6, §7, §8, §9

[9] = system: Ps. aeruginosa ATCC 10145; assay: Antimicrobial activity, agar dilution; assay type: cell-based; settings: Pseudomonas aeruginosa, ATCC10145, 20 h, Agar Dextrose dilutions, 37°C, 20 heures, read-out: Activité pharmacologique antimicrobienne (concentrations)
Text: as §1, §2, §3, §4, §5, §6, §7, §8, §9

Ps. aeruginosa ATCC 9721 = assay: Antimicrobial activity, agar dilution; assay type: cell-based; settings: Pseudomonas aeruginosa, ATCC9721, 20 h, Agar Dextrose dilutions, 37°C, 20 heures, read-out: Activité pharmacologique antimicrobienne (concentrations)
Text: as §1, §2, §3, §4, §5, §6, §7, §8, §9

Sal. typhi ATCC 6539 = assay: Antimicrobial activity, agar dilution; assay type: cell-based; settings: Salmonella enterica, 20 h, read-out: Activité pharmacologique antimicrobienne (concentrations)
Text: as §1, §2, §3, §4, §5, §6, §7, §8, §9

[10] = system: Shigella flexnerii ATCC 12022; assay: Antimicrobial activity, agar dilution; assay type: cell-based; settings: ATCC12022, 20 h, Agar Dextrose dilutions, 37°C, 20 heures, read-out: Activité pharmacologique antimicrobienne (concentrations)
Text: as §1, §2, §3, §4, §5, §6, §7, §8, §9

[11] = system: Staph. epidermidis ATCC 155-1; assay: Antimicrobial activity, agar dilution; assay type: cell-based; settings: Staphylococcus epidermidis, ATCC155, 20 h, Agar Dextrose dilutions, 37°C, 20 heures, read-out: Activité pharmacologique antimicrobienne (concentrations)
Text: as §1, §2, §3, §4, §5, §6, §7, §8, §9

[12] = system: Kleb. pneumoniae ATCC 10031; assay: Antimicrobial activity, agar dilution; assay type: cell-based, Klebsiella pneumoniae; settings: Klebsiella pneumoniae, ATCC10031, 20 h, Agar Dextrose dilutions, 37°C, 20 heures, read-out: Activité pharmacologique antimicrobienne (concentrations)
Text: as §1, §2, §3, §4, §5, §6, §7, §8, §9

[13] = system: Sal. typhimurium ATCC 14028; assay: Antimicrobial activity, agar dilution; assay type: cell-based, Salmonella typhimurium; settings: Salmonella enterica, 20 h, Agar Dextrose dilutions, 37°C, 20 heures, read-out: Activité pharmacologique antimicrobienne (concentrations)
Text: as §1, §2, §3, §4, §5, §6, §7, §8, §9

[14] = system: Ent. aerogenes ATCC 15038; assay: Antimicrobial activity, agar dilution; assay type: cell-based, Enterobacter aerogenes; settings: Klebsiella aerogenes, ATCC15038, 20 h, Agar Dextrose dilutions, 37°C, 20 heures, read-out: Activité pharmacologique antimicrobienne (concentrations)
Text: as §1, §2, §3, §4, §5, §6, §7, §8, §9

Ent. cloacae ATCC 23355 = assay: Antimicrobial activity, agar dilution; assay type: cell-based, Enterobacter cloacae; settings: Enterobacter cloacae, ATCC23355, 20 h, Agar Dextrose dilutions, 37°C, 20 heures, read-out: Activité pharmacologique antimicrobienne (concentrations)
Text: as §1, §2, §3, §4, §5, §6, §7, §8, §9

[15] = system: Serr. marcescens ATCC 13880; assay: Antimicrobial activity, agar dilution; assay type: cell-based, Serratia marcescens; settings: Serratia marcescens, ATCC13880, 20 h, Agar Dextrose dilutions, 37°C, 20 heures, read-out: Activité pharmacologique antimicrobienne (concentrations)
Text: as §1, §2, §3, §4, §5, §6, §7, §8, §9

Which results are given for C[C@@H]1[C@@H](NC(=O)[C@@H](C)N)CN1c1nc2c(cc1F)c(=O)c(C(=O)O)cn2C1CC1 [Exemple 4fa]?
solubility ([1]; pH 7): > 500 µg/mL; solubility ([1]; water): > 500 µg/mL; MIC [2]: 1 µg/mL (≈ 2.48 µM); MIC (Staph. aureus ATCC 25178): 1 µg/mL (≈ 2.48 µM); MIC [3]: 4 µg/mL (≈ 9.92 µM); MIC [4]: 1 µg/mL (≈ 2.48 µM); MIC [5]: 0.5 µg/mL (≈ 1.24 µM); MIC [6]: 4 µg/mL (≈ 9.92 µM); MIC [7]: 1 µg/mL (≈ 2.48 µM); MIC (Morg. morganii ATCC 8019): 8 µg/mL (≈ 19.8 µM); MIC [8]: 8 µg/mL (≈ 19.8 µM); MIC [9]: > 16 µg/mL; MIC (Ps. aeruginosa ATCC 9721): > 16 µg/mL; MIC (Sal. typhi ATCC 6539): 4 µg/mL (≈ 9.92 µM); MIC [10]: 1 µg/mL (≈ 2.48 µM); MIC [11]: 0.25 µg/mL (≈ 0.62 µM); MIC [12]: 8 µg/mL (≈ 19.8 µM); MIC [13]: 4 µg/mL (≈ 9.92 µM); MIC [14]: 4 µg/mL (≈ 9.92 µM); MIC (Ent. cloacae ATCC 23355): 4 µg/mL (≈ 9.92 µM); MIC [15]: 16 µg/mL (≈ 39.7 µM)
